This series is described as follows: Tolerability of KDE incorporated in food, bodyweight and food intake (pilot work, Experiment 4b). In kind it is in vivo, VM/Dk mice. An excerpt:
Food Intake and Ketone Diester Administration: Standard diet dry food (2018 Teklad Global 18% Protein Rodent Diet, Harlan) was mixed with deionized water (1 g dry food/mL deionized water) into a consistent paste and placed on a 100×15 mm dish. Food intake was tracked daily at the same time (7:00-9:00) and replaced every other day to ensure fresh food. Due to sinusoidal/oscillatory changes in food intake observed every other day (2-day pattern), a 4-day (2×2-day pattern) average was taken at EOL and baseline to calculate changes in anorexic symptoms. KDE was chemically synthesized with physical properties, preparation, and analysis described previously. For evaluation of KDE effect on anorexia, food intake was tracked daily at the same time (7:00-9:00). […] Consequently, upon VM-M3 inoculation, KDE+VM-M3 received ad libitum 0% KDE/weight day 1, 5% KDE day 2, 10% KDE day 3, 15% KDE day 4, 20% KDE day 5, 25% KDE day 6, and 30% KDE day 7 through 21 on top of HPSD. VM-M3 and Sham received HPSD ad libitum. As pilot work indicated potential water evaporation in food paste in ventilated cages, dehydration standard curve was calculated across various volumes of plated food (5, 10, 25.0, 50.0, 100 g/food) with and without KDE over a two-day period. Standard curve equation [water evaporated=0.2472 (original grams of water)+1.364] was used to correct for amount of dehydration prior to calculating caloric intake. For LPS experiments, 1×4 mL/kg KDE gavage or 1×4 mL/kg water gavage were administered for KDE+LPS and LPS-only, respectively. […]
To determine whether KDE could alter systemic metabolism, blood metabolites were measured at baseline following a standard diet and after a 4-day transition to a standard diet supplemented with 20% KDE, 25% KDE, or 30% KDE. […] To determine whether KDE could alter metabolism in CACS, blood ketones, glucose, and lactate were measured weekly. […] Thus, to determine if KDE altered tumor burden, in vivo bioluminescence imaging was analyzed weekly.

As for `CC(=O)CC(=O)OCCC(C)OC(=O)CC(C)=O` (stereo not drawn) [KDE, R/S 1,3-butanediol acetoacetate diester], where the note is “20-30% by weight KDE incorporated in standard diet, pilot work”, the “ad libitum food intake” value was “reductions in ad libitum food intake”. In addition, the “tolerability as indicated by bodyweight maintenance” value (30% KDE reached incrementally (5%/day) over 7 days) is “well-tolerated”. Further, the bodyweight across time entry (incremental incorporation 0-30% KDE/weight at 5% KDE/weight/day, highly palatable standard diet) is on record as “did not result in changes in bodyweight across time”.

Values taken from patent US12648924B2, “Prevention and treatment of effects of aging and age-associated disorders with ketone supplementation” (priority 2020, dated 2026).
